Source: patent publication US20100028325A1, “New Combination Of Cationic Preservatives With Taste-Masking Components” (LABORATORIOS MIRET, S.A., priority 2007, published 2010)

Experiments:
Format in all cases: in vivo, human
panel of 10 persons [1] = experiment: Organoleptic taste evaluation of LAE (200 ppm) with masking agents in carbonated juice drink; details: scale 1-no taste to 7-unbearable taste
Description: The combination of the test compound neohespiridin (NHDC) with LAE was investigated in a carbonated oral juice drink (a base sugar syrup with concentrated organic juice, manufactured by […] control solution of 200 ppm LAE in the juice drink was prepared. The test samples were prepared by direct dissolution of the test compound in the control solution. The test samples were compared with the control solution and with an untreated (blank) juice drink. The evaluation of the taste was based on the article titled “Reduction of saltiness and bitterness after a chlorhexidine rinse”, Chem. Senses 26: 105-116 (2001). […] The organoleptic studies were performed with a panel of 10 persons who were trained in experiments involving the tasting of bitter constituents. The panel was asked to compare samples containing a cationic surfactant alone or combined with one or more masking agent. The members of the panel were asked to indicate which sample was less bitter, thereby taking into account the scale of values defined as given above. The combination of LAE with only one masking agent, NAF®, was compared with a combination of several masking agents (one of these being NAF®) in carbonated orange juice drinks. The manner of determination of the organoleptic results is the same as described in example 1. The results are reported in the following table 3 where a solution A is compared with a solution B. Composition of solutions (all containing 200 ppm LAE): […] Different types of NAF® are investigated ([…] lemon, NAF® C Orange, etc., all produced by Ogawa). The carbonated orange juice drink is produced by Hausmann S.A.

panel of 10 persons [2] = experiment: Taste masking effect on MDLA (200 ppm) in carbonated juice drink; details: scale 1-no taste to 7-unbearable taste
Description: The evaluation of the taste was based on the article titled “Reduction of saltiness and bitterness after a chlorhexidine rinse”, Chem. Senses 26: 105-116 (2001). […] The organoleptic studies were performed with a panel of 10 persons who were trained in experiments involving the tasting of bitter constituents. The panel was asked to compare samples containing a cationic surfactant alone or combined with one or more masking agent. The members of the panel were asked to indicate which sample was less bitter, thereby taking into account the scale of values defined as given above.

consumer = experiment: Organoleptic experiments (beverages, toothpaste, food matrix, cosmetic preparation); details: for neutralisation of the bitter taste of the cationic surfactant: high doses, combined with a cationic surfactant of formula (1), numerous experiments
panel of 10 persons [3] = experiment: Determination of the taste masking in toothpaste containing MDLA (7,500 ppm); details: product 3,330 ppm + 7,500 ppm MDLA in toothpaste; scale 1-no taste to 7-unbearable taste
Description: The evaluation of the taste was based on the article titled “Reduction of saltiness and bitterness after a chlorhexidine rinse”, Chem. Senses 26: 105-116 (2001). […] The organoleptic studies were performed with a panel of 10 persons who were trained in experiments involving the tasting of bitter constituents. The panel was asked to compare samples containing a cationic surfactant alone or combined with one or more masking agent. The members of the panel were asked to indicate which sample was less bitter, thereby taking into account the scale of values defined as given above. Determination of the taste masking in toothpaste. The toothpaste used was produced in the manner described in example 11.

panel of 10 persons [4] = experiment: Determination of the taste in toothpaste containing LAE (7,500 ppm); details: scale 1-no taste to 7-unbearable taste
Description: The evaluation of the taste was based on the article titled “Reduction of saltiness and bitterness after a chlorhexidine rinse”, Chem. Senses 26: 105-116 (2001). […] The organoleptic studies were performed with a panel of 10 persons who were trained in experiments involving the tasting of bitter constituents. The panel was asked to compare samples containing a cationic surfactant alone or combined with one or more masking agent. The members of the panel were asked to indicate which sample was less bitter, thereby taking into account the scale of values defined as given above. Determination of the taste in toothpaste. The toothpaste used is a standard opaque […] prepared by the addition of (in g): [table] […] A control sample contained LAE in a concentration of 7,500 ppm. The same concentration of LAE was present in all further investigated samples. […] The sweetening agents sorbitol and lactilol were investigated in the same test as described in example 11. The samples were prepared in similar manner, the concentration of LAE was 7,500 ppm.

[5] = test compound 10,000 ppm + 200 ppm LAE in juice drink
[6] = test compound 60,000 ppm + 200 ppm LAE in juice drink
[7] = test compound 10,000 ppm + 200 ppm MDLA in juice drink
[8] = test compound 1,000 ppm + 200 ppm LAE in juice drink
[9] = test compound 1,000 ppm + 200 ppm MDLA in juice drink
[10] = test compound 500 ppm + 200 ppm LAE in juice drink
[11] = sweetening agent 200,000 ppm + 7,500 ppm LAE in toothpaste

`OC[C@H]1O[C@@](CO)(O[C@H]2O[C@H](CO)[C@@H](O)[C@H](O)[C@H]2O)[C@@H](O)[C@@H]1O` [sugar] was tested, and the Organoleptic results (panel of 10 persons [1]; [5]) was 5.0, the Organoleptic results (panel of 10 persons [1]; [6]) was 4.8 and the Organoleptic results (panel of 10 persons [2]; [7]) was 5.1. The “neutralisation of the bitter taste of the cationic surfactant” value (“neutralisation” for short) (consumer) was “does not neutralise the bitter taste”.
In the case of `OC[C@H]1O[C@H](O[C@]2(CCl)O[C@H](CCl)[C@@H](O)[C@@H]2O)[C@H](O)[C@@H](O)[C@H]1Cl` [Sucralose, sucralose], the Organoleptic results (panel of 10 persons [1]; test compound 5 ppm + 200 ppm LAE in juice drink) is reported as 2.7.
Compound `COc1ccc(CCC(=O)c2c(O)cc(O[C@@H]3O[C@H](CO)[C@@H](O)[C@H](O)[C@H]3O[C@@H]3O[C@@H](C)[C@H](O)[C@@H](O)[C@H]3O)cc2O)cc1O` [NHDC] has an Organoleptic results (panel of 10 persons [1]; test compound 1 ppm + 200 ppm LAE in juice drink) of 2.5.
Work on `CC(=O)[O-].[Na+]` [sodium acetate] yielded an Organoleptic results (panel of 10 persons [1]; [8]) of 2.8, an Organoleptic results (panel of 10 persons [1]; [5]) of 2.3 and an Organoleptic results (panel of 10 persons [2]; [7]) of 2.8.
`N[C@@H](CCC(=O)[O-])C(=O)[O-].[Na+].[Na+]` [sodium glutamate] gave an Organoleptic results (panel of 10 persons [1]; [8]) of 5.0, an Organoleptic results (panel of 10 persons [1]; [6]) of 4.8 and an Organoleptic results (panel of 10 persons [2]; [9]) of 5.4.
`CC1(C)[C@@H](O[C@H]2O[C@H](C(=O)O)[C@@H](O)[C@H](O)[C@H]2O[C@@H]2O[C@H](C(=O)O)[C@@H](O)[C@H](O)[C@H]2O)CC[C@]2(C)[C@H]3C(=O)C=C4[C@@H]5C[C@@](C)(C(=O)O)CC[C@]5(C)CC[C@@]4(C)[C@]3(C)CC[C@@H]12` [Glycyrrhizinate, monoammonium glycyrrhizinate] gave an Organoleptic results (panel of 10 persons [1]; test compound 250 ppm + 200 ppm LAE in juice drink) of 2.3, an Organoleptic results (panel of 10 persons [1]; [10]) of 2 and an Organoleptic results (panel of 10 persons [1]; [8]) of 2. It also gave an Organoleptic results (panel of 10 persons [2]; [9]) of 2.4.
In the case of `CCCCCCCCCCCCOS(=O)(=O)[O-].[Na+]` [SDS, sodium dodecyl sulfate], the Organoleptic results (panel of 10 persons [1]; test compound 1,330 ppm + 200 ppm LAE in juice drink) is reported as 2.9, the Organoleptic results (panel of 10 persons [1]; test compound 1,960 ppm + 200 ppm LAE in juice drink) is reported as 2.3 and the Organoleptic results (panel of 10 persons [1]; test compound 3,320 ppm + 200 ppm LAE in juice drink) is reported as 1.6. The Organoleptic results (panel of 10 persons [2]; test compound 3,320 ppm + 200 ppm MDLA in juice drink) was 2.6, the Organoleptic result (panel of 10 persons [3]) was 2.9 and the Organoleptic result (panel of 10 persons [4]; product 1,960 ppm + 7,500 ppm LAE in toothpaste) was 2.9. The Organoleptic result (panel of 10 persons [4]; product 3,330 ppm + 7,500 ppm LAE in toothpaste) was 2.8 and the “taste of the toothpaste” value (consumer; cationic surfactant of formula (1) combined only with SDS, cosmetic preparation) was “smooth taste”.
lysozyme gave an Organoleptic results (panel of 10 persons [1]; [10]) of 2.5, an Organoleptic results (panel of 10 persons [1]; test compound 2,500 ppm + 200 ppm LAE in juice drink) of 2 and an Organoleptic results (panel of 10 persons [2]; test compound 2,500 ppm + 200 ppm MDLA in juice drink) of 2.7.
For `OC[C@@H](O)[C@@H](O)[C@H](O)[C@@H](O)CO` [Sorbitol, sorbitol], the Organoleptic result (panel of 10 persons [4]; [11]) was 4.9 and the “neutralisation” value (consumer) was “does not neutralise the bitter taste”.
`OC[C@@H](O)[C@@H](O)[C@H](O)[C@H](O)CO` [mannitol] was tested, and the “neutralisation” value (consumer) was “does not neutralise the bitter taste”.
Work on `CCCCCCCCCCCC(=O)N[C@@H](CCCN=C(N)N)C(=O)OCC.Cl` [LAE, ethyl ester of the lauramide of the arginine monohydrochloride] yielded an Organoleptic result (panel of 10 persons [4]; Control: 7,500 ppm LAE in toothpaste, no masking agent) of 5.4.
For `OC[C@@H](O)[C@@H](O[C@@H]1O[C@H](CO)[C@H](O)[C@H](O)[C@H]1O)[C@H](O)[C@@H](O)CO` [Lactitol, lactitol], the Organoleptic result (panel of 10 persons [4]; [11]) was 5.1 and the “neutralisation” value (consumer) was “does not neutralise the bitter taste”.
For `OC[C@H]1O[C@@H]2O[C@H]3[C@H](O)[C@@H](O)[C@@H](O[C@H]4[C@H](O)[C@@H](O)[C@@H](O[C@H]5[C@H](O)[C@@H](O)[C@@H](O[C@H]6[C@H](O)[C@@H](O)[C@@H](O[C@H]7[C@H](O)[C@@H](O)[C@@H](O[C@H]8[C@H](O)[C@@H](O)[C@@H](O[C@H]1[C@H](O)[C@H]2O)O[C@@H]8CO)O[C@@H]7CO)O[C@@H]6CO)O[C@@H]5CO)O[C@@H]4CO)O[C@@H]3CO` [β-cyclodextrin], the Organoleptic results (panel of 10 persons [1]; [8]) was 2.1 and the Organoleptic result (panel of 10 persons [4]; product 2,000 ppm + 7,500 ppm LAE in toothpaste) was 2.7.
